Legend:
[1] = Stability against equine kidney gamma-glutamyltranspeptidase mediated breakdown at pH 8.4 after 15 mins; format: ADME, tissue-based; conditions: pH 8.4, 0.25 h
[2] = Stability against equine kidney gamma-glutamyltranspeptidase mediated breakdown at pH 8.4 after 15 hrs; format: ADME; conditions: pH 8.4, 15 h
Glyoxalase I = target: T1, Glyoxalase I (Saccharomyces cerevisiae S288c, UniProt P50107); assay: Inhibition of yeast glyoxalase1
T1 sequence (P50107 whole entry): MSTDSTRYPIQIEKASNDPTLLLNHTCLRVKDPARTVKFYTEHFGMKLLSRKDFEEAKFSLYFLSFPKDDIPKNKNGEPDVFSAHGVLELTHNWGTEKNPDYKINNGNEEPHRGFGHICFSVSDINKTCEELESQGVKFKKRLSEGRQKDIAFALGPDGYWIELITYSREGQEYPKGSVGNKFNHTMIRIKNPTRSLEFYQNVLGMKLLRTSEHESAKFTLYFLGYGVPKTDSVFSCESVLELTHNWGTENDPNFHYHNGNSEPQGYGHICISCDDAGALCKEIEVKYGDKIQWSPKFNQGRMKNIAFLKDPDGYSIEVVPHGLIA

| Activity [1] | Stability [2] | Ki (Glyoxalase I) | Structure (SMILES) |
| --- | --- | --- | --- |
| Not Active | – | – | N[C@@H](CCC(=O)N[C@@H](CSC(=O)N(O)c1ccc(Br)cc1)C(=O)NCC(=O)O)C(=O)O |
| Not Active | – | – | N[C@@H](CCC(=O)N[C@@H](CSCc1ccc(Br)cc1)C(=O)NCC(=O)O)C(=O)O |
| – | Stable | 2.19 µM | N[C@@H](CNC(=O)N[C@@H](CSC(=O)N(O)c1ccc(Br)cc1)C(=O)NCC(=O)O)C(=O)O |
